According to ChEMBL document CHEMBL1151830, “Cottoquinazoline A and cotteslosins A and B, metabolites from an Australian marine-derived strain of Aspergillus versicolor” (J Nat Prod, 2009):
Converted amounts (≈) assume the structure as drawn. Non-standard residues stand in square brackets, D forms with d. Residues, ends and D or L forms follow the SMILES beside them. NMeY = CN[C@@H](Cc1ccc(O)cc1)C(=O)O

Legend:
Type in all cases: functional, cell-based
[1] = Cytotoxicity against human MM418c5 cells
T47D = assay: Cytotoxicity against human T47D cells
DU-145 = assay: Cytotoxicity against human DU145 cells

CC[C@H](C)[C@@H]1NC(=O)[C@H](C(C)C)NC(=O)[C@@H]2CCCN2C(=O)[C@H](Cc2ccc(O)cc2)NC(=O)[C@H](Cc2ccc(O)cc2)N(C)C1=O [COTTESLOSIN A] (cyclo(I[NMeY]YPV))
EC50 [1]: 66 µg/mL (≈ 102 µM) | EC50 (T47D): 94 µg/mL (≈ 145 µM) | EC50 (DU-145): 90 µg/mL (≈ 139 µM)
